SMILES strings stand for the structures. Several values for one entry are separate records, joined by “and”; a condition that tells them apart may be missing. Identical values can stand only once.

The target in the first assay is MMP-13CD (catalytic domain of collagenase 3) (Homo sapiens, UniProt P45452). Briefly: Thiopeptolide hydrolysis assay, MMP-13.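 Further: inhibition of enzymatic thiopeptolide substrate cleavage (100 µM) in pH 6.0 MES buffer with CaCl2 and DTNB, comparing hydrolysis with versus without inhibitor.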 The conditions noted are these: IC50 μM, Table V; MMP-13.
Method: They measure the amount by which a test compound reduces the hydrolysis of a thiopeptolide substrate caused by a matrix metalloproteinase enzyme.
Thiopeptolide substrates show virtually no decomposition or hydrolysis in the absence of a matrix metalloproteinase enzyme. A typical thiopeptolide substrate commonly utilized for assays is Ac-Pro-Leu-Gly-thioester-Leu-Leu-Gly-OEt. A 100 μL assay mixture will contain 50 mM of 2-morpholinoethane sulfonic acid monohydrate (MES, pH 6.0) 10 mM CaCl2, 100 μM thiopeptolide substrate, and 1 mM 5,5′-dithio-bis-(2-nitro-benzoic acid) (DTNB). […] Assays are carried out with and without matrix metalloproteinase inhibitor compounds, and the amount of hydrolysis is compared for a determination of inhibitory activity of the test compounds.
As for `COc1ccc(CNC(=O)c2ccc3c(c2)c(=O)n(Cc2ccc(C(=O)N(C)C)cc2)c2nncn32)cc1` [4-(4-Dimethylcarbamoyl-benzyl)-5-oxo-4,5-dihydro-[1,2,4]triazolo[4,3-a]quinazoline-7-carboxylic acid 4-methoxy-benzylamide], the IC50 came to 0.0087 µM.

For the compound `O=C(NCc1ccncc1)c1ccc2c(c1)c(=O)n(Cc1ccccc1)c1nncn21` [4-Benzyl-5-oxo-4,5-dihydro-[1,2,4]triazolo[4,3-a]quinazoline-7-carboxylic acid (pyridin-4-ylmethyl)-amide], the IC50 worked out at 0.04 µM.

For the compound `O=C(NCc1ccc2c(c1)OCO2)c1ccc2c(c1)c(=O)n(Cc1ccccc1)c1nccn21` [4-Benzyl-5-oxo-4,5-dihydro-imidazo[1,2-a]quinazoline-7-carboxylic acid (benzo[1,3]dioxol-5-ylmethyl)-amide], the midpoint of inhibition, the IC50, lay at 0.165 µM.

Compound `O=C(NCc1ccncc1)c1ccc2c(c1)c(=O)n(Cc1ccccc1)c1nccn21` [4-Benzyl-5-oxo-4,5-dihydro-imidazo[1,2-a]quinazoline-7-carboxylic acid (pyridin-4-ylmethyl)-amide] came in with an IC50 of 2.1 µM.

The compound `COc1ccc(CNC(=O)c2ccc3c(c2)c(=O)n(CCOc2ccc(Cl)cc2)c2nncn32)cc1` [4-[2-(4-Chloro-phenoxy)-ethyl]-5-oxo-4,5-dihydro-[1,2,4]triazolo[4,3-a]quinazoline-7-carboxylic acid 4-methoxy-benzylamide] came in with an IC50 of 0.0865 µM.

Regarding `O=C(O)c1ccc(Cn2c(=O)c3cc(C(=O)NCc4ccc(F)cc4)ccc3n3cnnc23)cc1` [4-{7-[(4-Fluoro)-benzylcarbamoyl]-5-oxo-5H-[1,2,4]triazolo[4,3-a]quinazol-4-ylmethyl}benzoic acid], the 50% inhibitory concentration (IC50) worked out at 0.0011 µM.

For the compound `O=C(O)c1ccc(Cn2c(=O)c3cc(C(=O)NCc4ccncc4)ccc3n3cnnc23)cc1` [4-{7-[(Pyridin-4-ylmethyl)-carbamoyl]-5-oxo-5H-[1,2,4]triazolo[4,3-a]quinazol-4-ylmethyl} benzoic acid], inhibition was half-maximal at 0.0042 µM (IC50).

In turn, `O=C(O)Cc1ccc(Cn2c(=O)c3cc(C(=O)NCc4ccc5c(c4)OCO5)ccc3n3cnnc23)cc1` [(4-{7-[(1,3-Benzodioxol-5-ylmethyl)-carbamoyl]-5-oxo-5H-[1,2,4]triazolo[4,3-a]quinazolin-4-ylmethyl}-phenyl)-acetic acid] returned an IC50 of 0.0011 µM.

Take `COc1ccc(CNC(=O)c2ccc3c(c2)c(=O)n(Cc2ccc(CC(=O)O)cc2)c2nncn32)cc1` [(4-{7-[(4-Methoxy)-benzylcarbamoyl]-5-oxo-5H-[1,2,4]triazolo[4,3-a]quinazolin-4-ylmethyl}-phenyl)-acetic acid]: 0.0013 µM corresponded to half-maximal inhibition (IC50).

`O=C(O)Cc1ccc(Cn2c(=O)c3cc(C(=O)NCc4ccncc4)ccc3n3cnnc23)cc1` [(4-{7-[(Pyridin-4-yl)-methylcarbamoyl]-5-oxo-5H-[1,2,4]triazolo[4,3-a]quinazolin-4-ylmethyl}-phenyl)-acetic acid]: half-maximal inhibition (IC50) required 0.0062 µM.

Take `COC(=O)c1ccc(Cn2c(=O)c3cc(C(=O)NCc4ccc5c(c4)OCO5)ccc3n3cnnc23)cc1` [Methyl 4-{7-[(1,3-benzodioxol-5-ylmethyl)-carbamoyl]-5-oxo-5H-[1,2,4]triazolo[4,3-a]quinazol-4-ylmethyl}benzoate]: inhibition was half-maximal at 0.0011 µM (IC50).

In turn, `COC(=O)c1ccc(Cn2c(=O)c3cc(C(=O)NCc4ccncc4)ccc3n3cnnc23)cc1` [Methyl 4-{7-[(pyridin-4-ylmethyl)-carbamoyl]-5-oxo-5H-[1,2,4]triazolo[4,3-a]quinazol-4-ylmethyl}benzoate] showed an IC50 of 0.012 µM.

In turn, `COC(=O)Cc1ccc(Cn2c(=O)c3cc(C(=O)NCc4ccc5c(c4)OCO5)ccc3n3cnnc23)cc1` [Methyl (4-{7-[(1,3-benzodioxol-5-ylmethyl)-carbamoyll-5-oxo-5H-[1,2,4]triazolo[4,3-a]quinazolin-4-ylmethyl}-phenyl)-acetate] had a 50% inhibitory concentration (IC50) of 0.0022 µM.

For `COC(=O)Cc1ccc(Cn2c(=O)c3cc(C(=O)NCc4ccc(OC)cc4)ccc3n3cnnc23)cc1` [Methyl (4-{7-[(4-methoxy)-benzylcarbamoyl]-5-oxo-5H-[1,2,4]triazolo[4,3-a]quinazolin-4-ylmethyl}-phenyl)-acetate], the 50% inhibitory concentration (IC50) turned out to be 0.0029 µM.

As for `COC(=O)Cc1ccc(Cn2c(=O)c3cc(C(=O)NCc4ccncc4)ccc3n3cnnc23)cc1` [Methyl (4-{7-[(pyridin-4-yl)-methylcarbamoyl]-5-oxo-5H-[1,2,4]triazolo[4,3-a]quinazolin-4-ylmethyl}-phenyl)-acetate], the IC50 turned out to be 0.013 µM.

The compound `COc1ccc(CNC(=O)c2ccc3c(c2)c(=O)n(Cc2ccccc2)c2nncn32)cc1` [N-(4-Methoxybenzyl)-4-benzyl-5-oxo-4,5-dihydro[1,2,4]triazolo [4,3-a]quinazoline-7-carboxamide] gave an IC50 of 0.0055 µM.

Staying with this assay, now noted: MMP13 IC50 μM, Table IVb.
In the case of `COc1ccc(CNC(=O)c2cnc3c(c2)c(=O)n(Cc2ccc(C#N)cc2)c(=O)n3C)cc1` [3-(4-Cyano-benzyl)-1-methyl-2,4-dioxo-1,2,3,4-tetrahydro-pyrido[2,3-d] pyrimidine-6-carboxylic acid 4-methoxy-benzylamide], the IC50 came out at 0.016 µM.

Compound `COc1ccc(CNC(=O)c2cnc3c(c2)c(=O)n(Cc2ccc(F)cc2)c(=O)n3C)cc1` [3-(4-Fluoro-benzyl)-1-methyl-2,4-dioxo-1,2,3,4-tetrahydro-pyrido[2,3-d]pyrimidine-6-carboxylic acid 4-methoxy-benzylamide] yielded an IC50 of 0.032 µM.

Compound `Cn1c(=O)n(Cc2ccccc2)c(=O)c2cc(C(=O)NCc3ccc4c(c3)OCO4)cnc21` [3-Benzyl-1-methyl-2,4-dioxo-1,2,3,4-tetrahydro-pyrido[2,3-d] pyrimidine-6-carboxylic acid (1,3-benzodioxol-5-ylmethyl)-amide] showed an IC50 of 0.007 µM.

With `Cn1c(=O)n(Cc2ccccc2)c(=O)c2cc(C(=O)NCc3ccc4c(c3)OCO4)ncc21` [3-Benzyl-1-methyl-2,4-dioxo-1,2,3,4-tetrahydro-pyrido[3,4-d]pyrimidine-6-carboxylic acid (1,3-benzodioxol-5-ylmethyl)-amide], the concentration for half-maximal inhibition (IC50) was 0.00078 µM.

`Cn1c(=O)n(Cc2ccccc2)c(=O)c2cc(C(=O)CCc3ccccc3)ccc21` [3-Benzyl-1-methyl-6-(3-phenyl-propionyl)-1H-quinazoline-2,4-dione] had an IC50 of 2.9 µM.

As for `Cn1c(=O)n(Cc2ccccc2)c(=O)c2cc(SCc3ccccc3)ccc21` [3-Benzyl-6-benzylsulfanyl-1-methyl-1H-quinazoline-2,4-dione], half-maximal inhibition (IC50) was put at 4.1 µM.

`COc1ccc(CNC(=O)c2cnc3c(c2)c(=O)n(Cc2ccc(C(=O)O)cc2)c(=O)n3C)cc1` [4-[6-(4-Methoxy-benzylcarbamoyl)-1-methyl-2,4-dioxo-1,4-dihydro-2H-pyrido[2,3-d]pyrimidin-3-ylmethyl]-benzoic acid] yielded a 50% inhibitory concentration (IC50) of 0.0016 µM.

`COC(=O)c1ccc(Cn2c(=O)c3cc(C(=O)NCc4ccc(OC)cc4)ncc3n(C)c2=O)cc1` [Methyl 4-[6-(4-Methoxy-benzylcarbamoyl)-1-methyl-2,4-dioxo-1,4-dihydro-2H-pyrido[3,4-d]pyrimidin-3-ylmethyl]-benzoate]: the half-inhibitory concentration (IC50) came to 0.0017 µM.

Staying with this assay, now noted: MMP13 IC50 (nM), Table II.
`CC(=O)Nc1ccc(C(=O)NCc2ccc3c(c2)OCO3)cc1C(=O)NCc1ccc2c(c1)OCO2` had an IC50 of 5.2 µM.

As for `Nc1ccc(C(=O)NCc2ccc3c(c2)OCO3)cc1C(=O)NCc1ccc2c(c1)OCO2`, the midpoint of inhibition, the IC50, lay at 4.1 µM.

With `COc1ccc(C(=O)NCc2ccccc2)cc1C(=O)NCCOc1ccccc1`, the IC50 turned out to be 8.7 µM.

`O=C(NCc1ccncc1)c1cccc(C(=O)NCc2ccc(Cl)c(Cl)c2)c1` yielded an IC50 of 2.5 µM.

`CCOCCNC(=O)c1ccc(OC)c(C(=O)NCc2ccc3c(c2)OCO3)c1` showed an IC50 of 5.7 µM.

`O=C(OCc1ccccc1)c1cc(C(=O)OCc2ccccc2)cc([N+](=O)[O-])c1` [5-Nitro-isophthalic acid dibenzyl ester] returned an IC50 of 1.5 µM.

In turn, `O=C(OCc1ccc2c(c1)OCO2)c1cccc(C(=O)OCc2ccc3c(c2)OCO3)c1` [Isophthalic acid bis-(1,3-benzodioxol-5-ylmethyl) ester] returned an IC50 of 0.66 µM.

For `COc1ccc(CNC(=O)c2cc(C(=O)NCc3ccc4c(c3)OCO4)ccc2OC)cc1` [N-1,3-Benzodioxol-5-ylmethyl-4-methoxy-N′-(4-methoxy-benzyl)-isophthalamide], the IC50 was 0.2 µM and 0.19 µM.

As for `COc1ccc(C(=O)NCc2ccc3c(c2)OCO3)cc1C(=O)NCc1ccc(Cl)cc1` [N-1,3-Benzodioxol-5-ylmethyl-N′-(4-chloro-benzyl)-4-methoxy-isophthalamide], half-maximal inhibition (IC50) was put at 0.4 µM.

The same assay, now with this note: MMP13 IC50 (μM), Table 1b.
`COC(=O)c1nc(Cn2c(=O)c(C)c3sc(C(=O)NCc4ccc(F)cc4)cn3c2=O)ncc1OC`: the midpoint of inhibition, the IC50, lay at 1.85 µM.

Consider `Cc1c(=O)n(CCS(=O)(=O)c2ccc(F)cc2)c(=O)n2cc(C(=O)NCc3ccc(F)cc3)sc12`, for which the midpoint of inhibition, the IC50, lay at 0.645 µM.

In turn, `Cc1c(=O)n(CCC(=O)c2ccc(F)cc2)c(=O)n2cc(C(=O)NCc3ccc(F)cc3)sc12` registered an IC50 of 0.51 µM.

As for `C/C=C/Cn1c(=O)c(C)c2sc(C(=O)NCc3ccc(F)cc3)cn2c1=O`, inhibition was half-maximal at 0.53 µM (IC50).

As for `CCC(C)n1c(=O)c(C)c2sc(C(=O)NCc3ccc(F)cc3)cn2c1=O` (stereo not drawn), the IC50 is 0.4 µM.

For `Cc1c(=O)n(CCOc2ccccc2)c(=O)n2cc(C(=O)NCc3ccc(F)cc3)sc12`, the IC50 amounted to 0.058 µM.

Compound `Cc1c(=O)n(CCS(=O)(=O)Cc2ccccc2)c(=O)n2cc(C(=O)NCc3ccc(F)cc3)sc12` gave an IC50 of 0.56 µM.

`CC/C=C/Cn1c(=O)c(C)c2sc(C(=O)NCc3ccc(F)cc3)cn2c1=O` had an IC50 of 0.16 µM.

In turn, `CCC#CCn1c(=O)c(C)c2sc(C(=O)NCc3ccc(F)cc3)cn2c1=O` yielded an IC50 of 0.092 µM.

Turning to `CC(C)=CCn1c(=O)c(C)c2sc(C(=O)NCc3ccc(F)cc3)cn2c1=O`, the IC50 stood at 0.82 µM.

Still in this assay, the particulars now being: read-out: MMP 13 IC50 μM; Table III.
Turning to `COc1cccc(CNC(=O)c2cc3c(=O)n(Cc4ccc(OC(C)(C)C(=O)O)cc4)c(=O)n(C)c3s2)c1`, the IC50 turned out to be 0.0185 µM.

In the case of `COc1ccc(CNC(=O)c2cc3c(=O)n(CCS(=O)(=O)c4ccccc4)c(=O)n(C)c3s2)cc1`, the IC50 turned out to be 4 µM.

By IC50 is commonly meant the concentration that inhibits the measured activity by half.

The values are drawn from patent US20050004126A1 (priority 2001, published 2005).
